This passage reports EC50 results from patent US20060223849A1, “Benzazole derivatives, compositions, and methods of use as beta-secretase inhibitors” (priority 2005, published 2006).

The assay has as its system HEK293 cells stably expressing wildtype human APP695 protein (HEK-APPwt cells). The assay is described as follows: Aβ cell based assay (Aβ1-40 secretion, ELISA). Conditions: 1 hr room temperature then five-hour incubation at 37° C., Aβ1-40 ELISA, DAPT as 100% inhibition reference, read-out: EC50, reduction of Aβ1-40 secretion in the cell based assay. How it is done: Aβ Cell Based Assay Procedure
In the following assay, the proteolytic activity of BACE in cells exposed to varying concentrations of a compound of interest is measured by observing the amount of Aβ1-40 secreted from HEK293 cells (Human Embryonic Kidney epithelial cell line) stably expressing either wildtype human APP695 protein (HEK-APPwt cells).
HEK-APPwt cells were grown in high glucose DMEM (Dulbecco's Modified Eagles Medium) with 4500 mg glucose/L,L-glutamine, NaHCO3, pyrdoxin HCl, 10 mM HEPES (4-(2-hydroxyethyl)-1-piperazineethanesulfonic acid) (pH 7.4), 0.1 mM NEAA (Non-essential Amino Acids) (GIBCO Cat#11140-050), 10% fetal bovine serum and 250 μg/ml hygromycin in T-225 flasks at 37° C. with CO2 and humidity control.
Test compounds were initially prepared in DMSO and diluted with DMEM media containing 2% FBS (Fetal bovine serum) and 0.05% Tween20. Ten standard compound solutions were prepared having a range of concentrations. The standard compound solutions were used to determine the EC50 of the test compound. The range of concentrations chosen may depend on the compound's predicted potency.
To prepare the cells for the assay, a flask containing HEK-APPwt cells were trypsinized briefly (1 mL trypsin), and once the cells detached, 4 mL of 10% FBS-DMEM was added to the flask. The detached cells were centrifuged at 900 rpm for 5 min to form a pellet.
The HEK-APPwt cell pellet was re-suspended with 10 mL DMEM media containing 2% FBS. 80 μL of the cell suspension was added to each well of a 96-well cell culture plate to give 100,000 cells/well. 10 μL of a standard compound solution was added to each well of the 96-well cell culture plate followed by 10 μL of Alamar blue solution. The cells were incubated at room temperature for 1 hr, followed by a five-hour incubation in the CO2 incubator at 37° C.
At the end of the incubation, the plates were removed from incubator, and the supernatant was collected. Aβ1-40 concentration in the medium was measured by using a commercial Aβ1-40 ELISA kit (IBL, Japan). Briefly, the ELISA plates were coated with anti-human Aβ35-40 mouse IgG monoclonal antibody. A horseradish peroxidase enzyme conjugated anti-human Aβ11-28 mouse IgG monoclone antibody was used for detection. The cell culture supernatant was diluted 1:4 fold with (EIA buffer+Protease inhibitor (buffer containing Protease Inhibitor (1 mL PI/30 mL buffer). A 100 μL aliquot of the diluted supernatant was added to each well of the ELISA plate and incubated for 6 hrs at 4° C. The ELISA plate was washed 8 times with phosphate buffered saline (PBS) containing 0.05% Tween 20.
A 100 μL of detection antibody was then added and incubated for 1 hour at 4° C. The plate was washed 8 times with PBS buffer containing 0.05% Tween 20 followed by addition of 100 μL of the substrate with the chromogen tetramethyl benzidine (TMB). The plate was incubated in the dark at room temperature for about 30 min and a stop solution (1N H2SO4) was added.
The intensity of the color developed was measured at 450 nm. The optical density at 450 nm (OD450) is proportional to the concentration of human Aβ1-40 secreted by the cell. As a reference, N—[N-(3,5-difluorophenacetyl-L-alanyl)]-S-phenylglycine t-butyl ester (DAPT, a γ-secretase inhibitor) was used to indicate 100% inhibition of BACE activity. Thus, the assay measures the ability of a compound of interest to reduce Aβ1-40 secretion. Compound potency was reported as the EC50 by calculating the percent inhibition at all concentration levels and the data were fit with non-linear curve fitting algorithm using in GraphPad Prism.
A general note: In an ELISA, binding on a coated surface is turned into a signal by an enzyme label.
The EC50 is the midpoint of the concentration-response curve. With `COc1cccc2cc(C(=O)Nc3nc4c(C(=O)Nc5ncc[nH]5)cccc4[nH]3)ncc12` [Example 295, 8-methoxy-isoquinoline-3-carboxylic acid [4-(1H-imidazol-2-ylcarbamoyl)-1H-benzoimidazol-2-yl]-amide], the EC50 was ≤ 2000 nM.
With `Cc1nc(C(=O)Nc2nc3c(C(=O)Nc4ncc[nH]4)cccc3[nH]2)cc2ccccc12` [Example 300, 1-methyl-isoquinoline-3-carboxylic acid [4-(1H-imidazol-2-ylcarbamoyl)-1H-benzoimidazol-2-yl]-amide] the figure was ≤ 2000 nM; with `O=C(Nc1nc2c(C(=O)Nc3ncc[nH]3)cccc2[nH]1)c1cncc(C#Cc2ccccc2)c1` [Example 414, 2-[(5-phenylethynyl-pyridine-3-carbonyl)-amino]-1H-benzoimidazole-4-carboxylic acid (1H-imidazol-2-yl)-amide], ≤ 2000 nM.
With `O=C(Nc1nc2c(C(=O)Nc3ncc[nH]3)cccc2[nH]1)c1cccc(C#CC2CC2)n1` [Example 439, Ar = 6-(Cyclopropylethynyl)-pyridine-2-yl] the figure was ≤ 2000 nM; with `O=C(Nc1nc2c(C(=O)Nc3ncc[nH]3)cccc2[nH]1)c1cccc(C#Cc2cccnc2)n1` [Example 434, Ar = 6-(Pyridin-3-ylethynyl)-pyridine-2-yl], ≤ 2000 nM.
For `COc1ccc(CCNC(=O)c2cccc3nc(NC(=O)c4cc5ccccc5cn4)[nH]c23)cc1` [Example 176, Isoquinoline-3-carboxylic acid {7-[2-(4-methoxy-phenyl)-ethylcarbamoyl]-1H-benzoimidazol-2-yl}-amide] the value was ≤ 2000 nM; for `COc1ccc2cc(C(=O)Nc3nc4c(C(=O)Nc5ncc[nH]5)cccc4[nH]3)ncc2c1` [Example 296, 7-methoxy-isoquinoline-3-carboxylic acid [4-(1H-imidazol-2-ylcarbamoyl)-1H-benzoimidazol-2-yl]-amide], ≤ 2000 nM; for `COc1ccc2cnc(C(=O)Nc3nc4c(C(=O)Nc5ncc[nH]5)cccc4[nH]3)cc2c1` [Example 294, 6-Methoxy-isoquinoline-3-carboxylic acid [4-(1H-imidazol-2-ylcarbamoyl)-1H-benzoimidazol-2-yl]-amide], ≤ 2000 nM.
As to `O=C(Nc1nc2cccc(C(=O)Nc3ncc[nH]3)c2[nH]1)c1cc2ccccc2cn1` [Example 58, isoquinoline-3-carboxylic acid [4-(1H-imidazol-2-ylcarbamoyl)-1H-benzoimidazol-2-yl]-amide], the EC50 is ≤ 2000 nM.
Turning to `O=C(Nc1nc2c(C(=O)Nc3ncc[nH]3)cccc2[nH]1)c1cc2cc3c(cc2cn1)OCCO3` [Example 318, Ar = 2,3-Dihydro-[1,4]dioxino[2,3-g]isoquinoline-8-yl], the concentration giving a half-maximal response (EC50) was ≤ 2000 nM.
For the molecule `O=C(Nc1nc2c(C(=O)Nc3ncc[nH]3)cccc2[nH]1)c1cccc(C#Cc2ccccc2)n1` [Example 416, 2-[(6-phenylethynyl-pyridine-2-carbonyl)-amino]-1H-benzoimidazole-4-carboxylic acid (1H-imidazol-2-yl)-amide], the EC50 was ≤ 2000 nM.
In the case of `COc1cc2ccnc(C(=O)Nc3nc4c(C(=O)Nc5ncc[nH]5)cccc4[nH]3)c2cc1OC` [Example 289, 6,7-dimethoxy-isoquinoline-1-carboxylic acid [4-(1H-imidazol-2-ylcarbamoyl)-1H-benzoimidazol-2-yl]-amide], the EC50 was ≤ 2000 nM.
For `O=C(Nc1nc2c(C(=O)Nc3nc4c(s3)CNCC4)cccc2[nH]1)c1cc2ccccc2cn1` [Example 198, isoquinoline-3-carboxylic acid [7-(4,5,6,7-tetrahydro-thiazolo[5,4-c]pyridin-2-ylcarbamoyl)-1H-benzoimidazol-2-yl]-amide], the concentration giving a half-maximal response (EC50) was ≤ 2000 nM.
For `CCOc1cc(C(=O)Nc2ncc[nH]2)c2[nH]c(NC(=O)c3cc4ccccc4cn3)nc2c1` [Example 472, isoquinoline-3-carboxylic acid [5-ethoxy-7-(1H-imidazol-2-ylcarbamoyl)-1H-benzoimidazol-2-yl]-amide] the value was ≤ 2000 nM; for `Cn1ccnc1CN1CCc2nc(NC(=O)c3cccc4[nH]c(NC(=O)c5cc6ccccc6cn5)nc34)sc2C1` [Example 247, Isoquinoline-3-carboxylic acid {4-[5-(1-methyl-1H-imidazol-2-ylmethyl)-4,5,6,7-tetrahydro-thiazolo[5,4-c]pyridin-2-ylcarbamoyl]-1H-benzoimidazol-2-yl}-amide], ≤ 2000 nM.
For `CS(=O)(=O)c1cccc(C#Cc2cccc(C(=O)Nc3nc4c(C(=O)Nc5ncc[nH]5)cccc4[nH]3)n2)c1` [Example 417, 2-{[6-(3-methanesulfonyl-phenylethynyl)-pyridine-2-carbonyl]-amino}-1H-benzoimidazole-4-carboxylic acid (1H-imidazol-2-yl)-amide] the value was ≤ 2000 nM; for `CS(=O)(=O)c1ccc(CNC(=O)c2cc(-c3ccncc3)cc3[nH]c(NC(=O)c4cc5ccccc5cn4)nc23)cc1` [Example 458, isoquinoline-3-carboxylic acid [4-(4-methanesulfonyl-benzylcarbamoyl)-6-pyridin-4-yl-1H-benzoimidazol-2-yl]-amide], ≤ 2000 nM.
With `O=C(Nc1ncc[nH]1)c1ccc2[nH]c(NC(=O)c3cc4ccccc4cn3)nc2c1` [Example 140, isoquinoline-3-carboxylic acid [5-(1H-imidazol-2-ylcarbamoyl)-1H-benzoimidazol-2-yl]-amide], the EC50 was ≤ 2000 nM.
For `CS(=O)(=O)c1ccc(CNC(=O)c2cccc3[nH]c(NC(=O)c4cc5ccccc5cn4)nc23)cc1` [Example 155, isoquinoline-3-carboxylic acid [4-(4-methanesulfonyl-benzylcarbamoyl)-1H-benzoimidazol-2-yl]-amide] the value was ≤ 2000 nM; for `COc1ccc(CNC(=O)c2cccc3nc(NC(=O)c4cc5ccccc5cn4)[nH]c23)cc1` [Example 165, Isoquinoline-3-carboxylic acid [7-(4-methoxy-benzylcarbamoyl)-1H-benzoimidazol-2-yl]-amide], ≤ 2000 nM.
With `O=C(Nc1nc2c(C(=O)Nc3ncc[nH]3)cccc2[nH]1)c1cccc(-c2ccco2)n1` [Example 355, Ar = 6-(Furan-2-yl)-pyridine-2-yl] the figure was ≤ 2000 nM.
For `COc1cc2cnc(C(=O)Nc3nc4c(C(=O)Nc5ncc[nH]5)cccc4[nH]3)cc2cc1OC` [Example 312, Ar = 6,7-Dimethoxy-isoquinoline-3-yl] the value was ≤ 2000 nM; for `N#Cc1cccc(-c2cccc(C(=O)Nc3nc4c(C(=O)Nc5ncc[nH]5)cccc4[nH]3)n2)c1` [Example 343, 2-{[6-(3-cyano-phenyl)-pyridine-2-carbonyl]-amino}-1H-benzoimidazole-4-carboxylic acid (1H-imidazol-2-yl)-amide], ≤ 2000 nM.
For `O=C(Nc1nc2c(C(=O)Nc3ncc[nH]3)cccc2[nH]1)c1nccc2ccccc12` [Example 311, Ar = Isoquinoline-1-yl], the EC50 was ≤ 2000 nM.
Turning to `CN1CCc2nc(NC(=O)c3cccc4[nH]c(NC(=O)c5cc6ccccc6cn5)nc34)sc2C1` [Example 212, Isoquinoline-3-carboxylic acid [4-(5-methyl-4,5,6,7-tetrahydro-thiazolo[5,4-c]pyridin-2-ylcarbamoyl)-1H-benzoimidazol-2-yl]-amide], the EC50 is ≤ 2000 nM.
For `CCS(=O)(=O)c1cc(C(=O)Nc2ncc[nH]2)c2[nH]c(NC(=O)c3cc4ccccc4cn3)nc2c1` [Example 491, isoquinoline-3-carboxylic acid [5-ethanesulfonyl-7-(1H-imidazol-2-ylcarbamoyl)-1H-benzoimidazol-2-yl]-amide] the value was ≤ 2000 nM.
